This is an account of results in patent US20070161648A1, “Substituted dihydro-isoindolones useful in treating kinase disorders” (priority 2005, published 2007).

Assay [1] concerns HeLa cervical adenocarcinoma. Nature of the assay: Cell proliferation inhibition assay (14C-thymidine incorporation), HeLa. The assay is classed as cell-based. The conditions noted are these: Homo sapiens. An excerpt:
(§1) The ability of a test compound to inhibit unregulated cell proliferation may be determined by measuring incorporation of ^14C-labelled thymidine into newly synthesized DNA within cell lines derived from carcinomas originating from several tissues. Accordingly, the effect of a test compound on proliferation of cells with a variety of phenotypes may be determined.
(§2) Carcinoma cell lines used include the HeLa cervical adenocarcinoma from the American Type Culture Collection (ATCC Cat. #CCL2), A375 malignant melanoma (ATCC Cat. #CRL-1619) and HCT-116 colon carcinoma (ATCC Cat. #CCL-247).
(§3) The carcinoma cells are trypsinized and counted. The cells (3000-8000 count) are added to each well of a 96-well CytoStar tissue culture treated scintillating microplate (Amersham #RPNQO160) in complete medium (100 μL) and the plate is then incubated in complete medium for 24 hrs at 37° C. in an inert atmosphere containing 5% CO2.
(§4) Test compound (1 μL) in 100% DMSO is added to the plate test-wells with DMSO only added to control-wells. The plate is incubated in complete medium for a second 24 hr period at 37° C. in an atmosphere containing 5% CO2.
(§5) An aliquot of a solution of Methyl ^14C-thymidine (56 mC/mmol) (NEN #NEC568 or Amersham #CFA532) and complete medium (20 uL to provide 0.2 μCi/well) is then added to each well and the plate is incubated for a third 24 hr period at 37° C. in an atmosphere containing 5% CO2.
(§6) The plate contents are then discarded, the plate is washed twice with PBS (200 μL) and then PBS (200 μL) is added to each well. The plate is sealed and the degree of methyl ^14C-thymidine incorporation is quantified on a Packard Top Count.
(§7) For a series of test concentrations, the IC50 was derived by graphing percent inhibition against the log of the concentrations tested for a given compound with results shown in Table 2.
(In general: Dividing cells build labelled thymidine or BrdU into new DNA.)

The next assay addresses T1, Aurora-A (Mus musculus, UniProt P97477).
T1 construct: followed by the full length protein encoding the murine Aurora-A; polyhistidine (N); made in house; host or cells: Sf9 insect cells
T1 sequence (P97477 1-395): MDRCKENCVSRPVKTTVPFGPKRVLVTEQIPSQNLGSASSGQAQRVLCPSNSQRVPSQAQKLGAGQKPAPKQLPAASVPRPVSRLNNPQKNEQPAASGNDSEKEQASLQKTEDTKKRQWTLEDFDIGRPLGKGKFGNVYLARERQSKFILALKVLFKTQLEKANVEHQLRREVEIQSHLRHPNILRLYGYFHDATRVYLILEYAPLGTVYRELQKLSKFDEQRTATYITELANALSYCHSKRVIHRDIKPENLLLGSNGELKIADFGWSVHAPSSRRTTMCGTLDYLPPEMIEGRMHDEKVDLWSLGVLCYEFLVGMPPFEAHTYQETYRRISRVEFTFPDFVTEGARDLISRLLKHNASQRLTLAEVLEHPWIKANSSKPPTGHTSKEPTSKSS
Description: Aurora-A screening assay (33P-ATP FlashPlate kinase assay). To be noted: for IC50: 10 μM ATP. The assay is classed as biochemical, murine. The method, then:
(§8) 70 μL of the kinase reaction mixture was dispensed into the well of a streptavidin coated FlashPlate™ (Cat. # SMP103, NEN, Boston, Mass.).
(§9) Test compound stock in 100% DMSO (1 μL) was added to the wells resulting in a final concentration of 1% DMSO in the reaction with a 100 μL final reaction volume. Each enzyme was diluted in 50 mM Tris-HCl pH=8.0, 0.1% BSA and 30 μL was added to each well to initiate the reaction. The reaction was incubated for one hour at 30° C. At the end of the 1 hr incubation, the reaction was terminated by aspirating the mixture from the plate and washing the wells twice with PBS containing 100 mM EDTA. The biotinylated peptide substrate became immobilized on the Flashplate™ and the incorporation of ^33P-γ-ATP was measured by reading the plate on a scintillation counter. Inhibition of the enzymatic activity was measured by observing a reduced amount of ^33P-γ-ATP incorporated into the immobilized peptide.
Aurora-A is a fusion protein containing a polyhistidine tag at the N terminus followed by the full length protein encoding the murine Aurora-A (Accession number GB BC014711) expressed and purified from sf9 insect cells. The assay used 400 ng of the N-terminal biotinylated peptide biotin-[…]-amide (Aurora-A) per well.
(§10) A maximum and minimum signal for the assay was determined on each plate. The percent inhibition of a test compound was calculated according to the formula: [formula]

For the next assay, the system named is A375 malignant melanoma. Description: Cell proliferation inhibition assay (14C-thymidine incorporation), A375. The class given is cell-based. To be noted: Homo sapiens, A-375.
Source text: as §1, §2, §3, §4, §5, §6, §7

In a further assay the target is T2, VEGF-R2 kinase domain (Rattus norvegicus, UniProt O08775).
T2 construct: polyhistidine (N)
T2 sequence (O08775 786-1343): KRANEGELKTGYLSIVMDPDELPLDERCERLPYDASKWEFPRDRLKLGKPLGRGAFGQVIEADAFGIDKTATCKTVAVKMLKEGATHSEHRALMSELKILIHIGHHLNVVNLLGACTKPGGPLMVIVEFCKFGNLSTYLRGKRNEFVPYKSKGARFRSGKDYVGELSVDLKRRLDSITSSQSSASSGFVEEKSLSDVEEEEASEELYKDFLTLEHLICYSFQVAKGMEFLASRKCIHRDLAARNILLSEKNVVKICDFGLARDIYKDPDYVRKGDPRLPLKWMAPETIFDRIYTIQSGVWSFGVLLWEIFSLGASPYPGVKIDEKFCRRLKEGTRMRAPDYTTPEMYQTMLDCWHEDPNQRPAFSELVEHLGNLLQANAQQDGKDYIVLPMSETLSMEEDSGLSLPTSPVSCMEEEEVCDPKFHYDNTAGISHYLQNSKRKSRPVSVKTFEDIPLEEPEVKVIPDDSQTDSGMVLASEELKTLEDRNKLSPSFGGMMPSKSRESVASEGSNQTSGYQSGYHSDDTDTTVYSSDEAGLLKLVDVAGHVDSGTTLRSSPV
Description: VEGF-R2 screening assay (33P-ATP FlashPlate kinase assay). The assay is classed as biochemical. To be noted: for IC50: 10 μM ATP; for inhibition at 100 µM: single test concentration 100 μM, read-out: VEGF-R2 percent inhibition. On the procedure: as §8, §9
The assay used 150 ng of the N-terminal biotinylated peptide biotin-[…]-amide (VEGF-R2) per well.
as §10

For another assay, the system named is HCT-116 colon carcinoma. Description: Cell proliferation inhibition assay (14C-thymidine incorporation), HCT116. The assay is classed as cell-based. The conditions noted are these: Homo sapiens.
Source text: as §1, §2, §3, §4, §5, §6, §7

`COc1ccc2[nH]c(-c3cccc4c3C(=O)NC4)cc2c1` [Cpd 3, 7-(5-methoxy-1H-indol-2-yl)-2,3-dihydro-isoindol-1-one]: the IC50 (commonly the concentration that gives 50% inhibition) in assay [1] was over 100 µM; at Aurora-A, 70 nM; in the assay on A375 malignant melanoma, over 100 µM; against VEGF-R2 kinase domain it was 111 nM; with HCT-116 colon carcinoma, over 100 µM.

As for `COc1ccc2c(c1)cc(-c1cccc3c1C(=O)NC3)n2C(=O)OC(C)(C)C` [Cpd 27, 5-methoxy-2-(3-oxo-2,3-dihydro-1H-isoindol-4-yl)-indole-1-carboxylic acid tert-butyl ester], the results for the IC50 (in assay [1]; in the assay with A375 malignant melanoma; in the assay on HCT-116 colon carcinoma) were 55.9 µM, over 10 µM and over 10 µM, respectively. The inhibition (in general, the drop in the measured response relative to a control, in per cent) at 10 µM on Aurora-A (single test concentration 10 μM, read-out: Aurora-A percent inhibition) came out at 48%. In addition, the inhibition at 100 µM on VEGF-R2 kinase domain was 57%.

On to `O=C1NCc2cccc(-c3cc4cc(O)ccc4[nH]3)c21` [Cpd 4, 7-(5-hydroxy-1H-indol-2-yl)-2,3-dihydro-isoindol-1-one], for which the IC50 in assay [1] is 3.64 µM; against Aurora-A, 90 nM; with A375 malignant melanoma, 4.85 µM; against VEGF-R2 kinase domain it was 119 nM; with HCT-116 colon carcinoma it was 6.09 µM.

In the case of `COc1ccc2c(c1)cc(-c1cccc3c1C(=O)NC3=O)n2C(=O)OC(C)(C)C` [Cpd 21, 2-(1,3-dioxo-2,3-dihydro-1H-isoindol-4-yl)-5-methoxy-indole-1-carboxylic acid tert-butyl ester], the IC50 was 43 µM in assay [1]; 270 nM on Aurora-A; over 100 µM in the assay with A375 malignant melanoma; 1520 nM against VEGF-R2 kinase domain; over 100 µM with HCT-116 colon carcinoma.

Take `CCN1CCN(CCCOc2ccc3[nH]c(-c4cccc5c4C(=O)NC5)cc3c2)CC1` [Cpd 1, 7-{5-[3-(4-ethyl-piperazin-1-yl)-propoxy]-1H-indol-2-yl}-2,3-dihydro-isoindol-1-one]: the IC50 came to 5.31 µM in assay [1]; 44 nM at Aurora-A; 3.9 µM in the assay on A375 malignant melanoma; 14 nM against VEGF-R2 kinase domain; 3.85 µM with HCT-116 colon carcinoma.

On to `CC(C)(C)OC(=O)n1c(-c2cccc3c2C(=O)NC3)cc2cc(OCCN3CCOCC3)ccc21` [Cpd 30, 5-(2-morpholin-4-yl-ethoxy)-2-(3-oxo-2,3-dihydro-1H-isoindol-4-yl)-indole-1-carboxylic acid tert-butyl ester], for which the figures for the half-inhibitory concentration (IC50) (in assay [1]; in the assay on A375 malignant melanoma; in the assay with HCT-116 colon carcinoma) were 20.3 µM, 5.31 µM and 17 µM, respectively. For the same compound, the inhibition at 100 µM at Aurora-A (single test concentration 100 μM, read-out: Aurora-A percent inhibition) was found to be 57%; on VEGF-R2 kinase domain, 65%.

In the case of `O=C1NCc2cccc(-c3cc4cc(OCCCN5CCC(CO)CC5)ccc4[nH]3)c21` [Cpd 2, 7-{5-[3-(4-hydroxymethyl-piperidin-1-yl)-propoxy]-1H-indol-2-yl}-2,3-dihydro-isoindol-1-one], the IC50 in assay [1] stood at 3.35 µM; against Aurora-A, 61 nM; with A375 malignant melanoma, 0.763 µM; against VEGF-R2 kinase domain, 18 nM; in the assay on HCT-116 colon carcinoma, 2.26 µM.

Take `COc1cc2c(c(-c3cc4cc(OC)ccc4[nH]3)c1)C(=O)NC2` [Cpd 6, 5-methoxy-7-(5-methoxy-1H-indol-2-yl)-2,3-dihydro-isoindol-1-one]: the IC50 amounted to 5.08 µM in assay [1]; 100 nM against Aurora-A; 3.02 µM in the assay with A375 malignant melanoma; 103 nM against VEGF-R2 kinase domain; 4.28 µM with HCT-116 colon carcinoma.
